Where two headings read alike, the source gives them in different places.

Type in all cases: in vivo
For assay [1], the system named is pigweed (Amaranthus retroflexus). Put plainly: Test A preemergence. The settings on record: Amaranthus retroflexus, pre-emergence, 240 h; for pest or weed control at 125 g/ha: 125 g ai/ha; for pest or weed control at 500 g/ha: 500 g ai/ha.
Another assay deals with corn (Zea mays). Put plainly: Test A postemergence. The settings on record: Zea mays, post-emergence, 240 h, postemergence; for plant injury at 125 g/ha: 125 g ai/ha. A digest of the protocol:
(§1)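 Seeds sprayed preemergence with a directed soil spray, or plants at 2 to 10 cm height and one- to two-leaf stage sprayed postemergence, with test chemicals in a non-phytotoxic solvent mixture containing surfactant, in loam soil–sand blend. Injury rated visually against untreated controls after about 10 d in greenhouse, 0 (no effect) to 100 (complete control).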

In assay [2] the test system is barnyardgrass (Echinochloa crus-galli). Put plainly: Test A postemergence. The settings on record: Echinochloa crus-galli, post-emergence, 240 h, postemergence; for pest or weed control at 125 g/ha: 125 g ai/ha. A digest of the protocol:
as §1

For assay [3], the system named is blackgrass (Alopecurus myosuroides). Put plainly: Test A postemergence. The conditions noted are these: Alopecurus myosuroides, post-emergence, 240 h, postemergence; for pest or weed control at 125 g/ha: 125 g ai/ha. Summed up:
as §1

For assay [4], the system named is ragweed (common ragweed, Ambrosia elatior). Put plainly: Test A postemergence. The conditions noted are these: Ambrosia artemisiifolia, post-emergence, 240 h, postemergence; for pest or weed control at 125 g/ha: 125 g ai/ha. Summed up: as §1
Assay [5] relates to Galium (catchweed bedstraw, Galium aparine). Put plainly: Test A postemergence. The conditions noted are these: Galium, post-emergence, 240 h, postemergence; for pest or weed control at 125 g/ha: 125 g ai/ha. A digest of the protocol: as §1
For assay [6], the system named is wheat (Triticum aestivum). Put plainly: Test A postemergence. The settings on record: Triticum aestivum, post-emergence, 240 h, postemergence; for plant injury at 125 g/ha: 125 g ai/ha. Summed up:
as §1

The test system of assay [7] is giant foxtail (Setaria faberii). Put plainly: Test A postemergence. The settings on record: Setaria faberi, post-emergence, 240 h, postemergence; for pest or weed control at 125 g/ha: 125 g ai/ha. Summed up:
as §1

In assay [8] the test system is pigweed (Amaranthus retroflexus). Put plainly: Test A postemergence. The settings on record: Amaranthus retroflexus, post-emergence, 240 h, postemergence; for pest or weed control at 125 g/ha: 125 g ai/ha. A digest of the protocol:
as §1

Assay [9] deals with ryegrass, Italian (Italian ryegrass, Lolium multiflorum). Put plainly: Test A postemergence. The settings on record: Lolium multiflorum, post-emergence, 240 h, postemergence; for pest or weed control at 125 g/ha: 125 g ai/ha. A digest of the protocol:
as §1

The subject of the next assay is Kochia (Kochia scoparia). Put plainly: Test A postemergence. The settings on record: Bassia scoparia, post-emergence, 240 h, postemergence; for pest or weed control at 125 g/ha: 125 g ai/ha. A digest of the protocol: as §1
The test system of assay [10] is sedge, umbrella (small-flower umbrella sedge, Cyperus difformis). Put plainly: Test B flooded paddy test. The settings on record: Cyperus difformis, Flood, 250 g ai/ha, read-out: Sedge, Umbrella plant response rating. A digest of the protocol:
(§2)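 Evaluation by eye, against controls, occurred 13–15 d post-treatment in a greenhouse, using a 0 (no effect) to 100 (complete control) scale. Application was into the paddy water, 3 cm deep over the soil, on 2-leaf plants.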

The test system of assay [11] is ducksalad (Heteranthera limosa). Put plainly: Test B flooded paddy test. The conditions noted are these: Heteranthera limosa, Flood, 250 g ai/ha, read-out: Ducksalad plant response rating. Summed up:
as §2

The test system of assay [12] is barnyardgrass (Echinochloa crus-galli). Put plainly: Test B flooded paddy test. The conditions noted are these: Echinochloa crus-galli, Flood, 250 g ai/ha, read-out: Barnyardgrass plant response rating. Summed up: as §2
For a further assay, the system named is rice (Oryra sativa). Put plainly: Test B flooded paddy test. The settings on record: Oryza sativa, Flood, 250 g ai/ha, read-out: Rice plant response rating. A digest of the protocol:
as §2

[13] abbreviates: preemergence, 0 to 100 scale where 0 is no effect and 100 is complete control, read-out: Pigweed plant response rating.
Setting [14] is: scale of 0 to 100 where 0 is no effect and 100 is complete control.
The mark [15] stands for this setting: 0 to 100 scale where 0 is no effect and 100 is complete control.

With `Cc1c(F)ccc([C@H]2CN(C)C(=O)[C@@H]2C(=O)Nc2ccc(F)c(F)c2F)c1F` [Compound 836], the pest or weed control at 125 g/ha in assay [1] (setting [13]) stood at 30%; in assay [2] (visual injury rating after approximately 10 d, read-out: Barnyardgrass plant response rating (0 to 100 scale, 0 no effect, 100 complete control)), 100%; in [3] (visual injury rating after approximately 10 d, read-out: Blackgrass plant response rating (0 to 100 scale, 0 no effect, 100 complete control)) it was 70%; in [4] (visual injury rating after approximately 10 d, read-out: Ragweed plant response rating (0 to 100 scale, 0 no effect, 100 complete control)), 0%; in assay [5] (visual injury rating after approximately 10 d, read-out: Galium plant response rating (0 to 100 scale, 0 no effect, 100 complete control)), 50%; in assay [7] (visual injury rating after approximately 10 d, read-out: Foxtail, Giant plant response rating (0 to 100 scale, 0 no effect, 100 complete control)), 90%. For the same compound, the pest or weed control at 125 g/ha is 30% in [8] (visual injury rating after approximately 10 d, read-out: Pigweed plant response rating (0 to 100 scale, 0 no effect, 100 complete control)); 60% in assay [9] (visual injury rating after approximately 10 d, read-out: Ryegrass, Italian plant response rating (0 to 100 scale, 0 no effect, 100 complete control)); 50% in the assay with Kochia (Kochia scoparia) (visual injury rating after approximately 10 d, read-out: Kochia plant response rating (0 to 100 scale, 0 no effect, 100 complete control)). Also, in assay [1] (Preemergence, visual injury vs untreated controls after approximately 10 d, read-out: Pigweed plant response rating (0 to 100 scale where 0 is no effect and 100 is complete control)), the pest or weed control at 500 g/ha amounted to 60%. Besides, the plant injury at 125 g/ha in the assay with corn (Zea mays) (visual injury rating after approximately 10 d, read-out: Corn plant response rating (0 to 100 scale, 0 no effect, 100 complete control)) came out at 70%; in assay [6] (visual injury rating after approximately 10 d, read-out: Wheat plant response rating (0 to 100 scale, 0 no effect, 100 complete control)), 40%. Also, the pest or weed control at 250 g/ha in assay [10] (setting [14]) turned out to be 0%; in assay [11] (setting [14]), 95%; in assay [12] (setting [14]) it was 65%; with rice (Oryra sativa) (setting [14]) it was 0%.

Consider `Cc1cc([C@H]2CN(C)C(=O)[C@@H]2C(=O)Nc2ccccc2F)on1` [Compound 1195], for which the pest or weed control at 125 g/ha in assay [1] (preemergence, visual injury rating, 0 to 100 scale where 0 is no effect and 100 is complete control, approximately 10 d, read-out: Pigweed plant response rating) is 0%; in assay [2] (visual injury vs untreated controls after approx. 10 d, 0 = no effect, 100 = complete control, read-out: Barnyardgrass plant response rating (0 to 100 scale)) it was 0%; in assay [3] (visual injury vs untreated controls after approx. 10 d, 0 = no effect, 100 = complete control, read-out: Blackgrass plant response rating (0 to 100 scale)) it was 0%; in assay [4] (visual injury vs untreated controls after approx. 10 d, 0 = no effect, 100 = complete control, read-out: Ragweed plant response rating (0 to 100 scale)), 0%; in assay [5] (visual injury vs untreated controls after approx. 10 d, 0 = no effect, 100 = complete control, read-out: Galium plant response rating (0 to 100 scale)), 0%; in assay [7] (visual injury vs untreated controls after approx. 10 d, 0 = no effect, 100 = complete control, read-out: Foxtail, Giant plant response rating (0 to 100 scale)) it was 0%. For the same compound, the pest or weed control at 125 g/ha in assay [8] (visual injury vs untreated controls after approx. 10 d, 0 = no effect, 100 = complete control, read-out: Pigweed plant response rating (0 to 100 scale)) was 0%; in assay [9] (visual injury vs untreated controls after approx. 10 d, 0 = no effect, 100 = complete control, read-out: Ryegrass, Italian plant response rating (0 to 100 scale)), 0%; with Kochia (Kochia scoparia) (visual injury vs untreated controls after approx. 10 d, 0 = no effect, 100 = complete control, read-out: Kochia plant response rating (0 to 100 scale)), 0%. The pest or weed control at 500 g/ha in assay [1] (setting [13]) was 0%; in [2] (500 g ai/ha, 0 to 100 scale, 0 is no effect, 100 is complete control, read-out: Barnyardgrass plant response rating) it was 20%; in assay [3] (500 g ai/ha, 0 to 100 scale, 0 is no effect, 100 is complete control, read-out: Blackgrass plant response rating), 0%; in [4] (500 g ai/ha, 0 to 100 scale, 0 is no effect, 100 is complete control, read-out: Ragweed plant response rating), 0%; in [5] (500 g ai/ha, 0 to 100 scale, 0 is no effect, 100 is complete control, read-out: Galium plant response rating), 0%; in assay [7] (500 g ai/ha, 0 to 100 scale, 0 is no effect, 100 is complete control, read-out: Foxtail, Giant plant response rating), 20%. Moreover, the pest or weed control at 500 g/ha in assay [8] (500 g ai/ha, 0 to 100 scale, 0 is no effect, 100 is complete control, read-out: Pigweed plant response rating) is 0%; in [9] (500 g ai/ha, 0 to 100 scale, 0 is no effect, 100 is complete control, read-out: Ryegrass, Italian plant response rating), 0%; in the assay with Kochia (Kochia scoparia) (500 g ai/ha, 0 to 100 scale, 0 is no effect, 100 is complete control, read-out: Kochia plant response rating) it was 0%. Moreover, the plant injury at 125 g/ha in the assay on corn (Zea mays) (visual injury vs untreated controls after approx. 10 d, 0 = no effect, 100 = complete control, read-out: Corn plant response rating (0 to 100 scale)) came out at 0%; in [6] (visual injury vs untreated controls after approx. 10 d, 0 = no effect, 100 = complete control, read-out: Wheat plant response rating (0 to 100 scale)), 0%. In addition, the plant injury at 500 g/ha with corn (Zea mays) (500 g ai/ha, 0 to 100 scale, 0 is no effect, 100 is complete control, read-out: Corn plant response rating) is 0%; in [6] (500 g ai/ha, 0 to 100 scale, 0 is no effect, 100 is complete control, read-out: Wheat plant response rating), 0%. Besides, the pest or weed control at 250 g/ha in assay [10] (setting [15]) came out at 0%; in [11] (setting [15]), 0%; in [12] (setting [15]) it was 20%; in the assay with rice (Oryra sativa) (setting [15]), 20%.
